The source of these data is publication PMC7408179 (Pharmaceutics, 2020).

Data set [1] in a line: Duodenal fluid volume via MRI, control vs PPI condition. The class given is in vivo, human. Particulars: for relative decrease in duodenal AUVC: first 180 min after Norvir tablet with 240 mL water, n = 5. On the procedure: All volunteers provided written informed consent before participating in the trial. Each trial day, the participant came to the radiology department at the University Hospitals Leuven after an overnight fast (at least 12 h). Water was allowed until the night before the trial except for the volume needed to swallow the PPI tablet. For the PPI condition, participants were pre-treated with a once-daily dose of Nexium (just before breakfast) starting two days prior to the trial day. On the morning of the trial, the final Nexium tablet was taken 2 h prior to the arrival time at the hospital, with as little water as possible to swallow the tablet. […] A venous catheter was placed in the subject’s arm and a blank blood sample (5 mL) was collected in heparinized tubes (BD Vacutainer systems, Plymouth, UK). […] A scouting sequence was used in the coronal and transversal plane to allow correct sequence positioning. At each time point, three standardized sequences were used to acquire images; sequence parameters are depicted in Table 1. Images were taken during exhalation breath hold. Images were analysed using Horos™ (Version 3.3.6, Horos project), a free open source medical images viewer. […] This made the sequence unsuitable for fluid determination as the duodenum passes these blood vessels which would interfere with the outlining of the fluid present in the duodenum. Sequence 2 was therefore used as a localizer for the duodenum (i.e., determining the location of the duodenojejunal flexure (Figure 1). As free water lights up in a T2 weighted image, a trained operator semi-automatically traced all the bright spots in each slice for the stomach and duodenum, according to a published procedure. […] This cut-off value must be regarded as a rule of thumb and manual correction was made to account for bright organs like the gall bladder and obvious acquisition errors (e.g., illogical dark spots in the middle of a fluid filled stomach).

The nature of data set [2]: Gastric fluid volume via MRI, control vs PPI condition. It counts as in vivo, human. The conditions noted are these: for relative decrease in total gastric fluid volume (AUVC): first 180 min after Norvir tablet with 240 mL water, median, n = 5.
Protocol: Each trial day, the participant came to the radiology department at the University Hospitals Leuven after an overnight fast (at least 12 h). Water was allowed until the night before the trial except for the volume needed to swallow the PPI tablet. For the PPI condition, participants were pre-treated with a once-daily dose of Nexium (just before breakfast) starting two days prior to the trial day. On the morning of the trial, the final Nexium tablet was taken 2 h prior to the arrival time at the hospital, with as little water as possible to swallow the tablet. […] A venous catheter was placed in the subject’s arm and a blank blood sample (5 mL) was collected in heparinized tubes (BD Vacutainer systems, Plymouth, UK). […] In addition, subjects were placed in a Philips 1.5 T MRI System (Philips, Best, The Netherlands) to assess the gastric and duodenal fluid volume, once before administration of the study medication and afterwards at predetermined time points, i.e., 20, 40, 60, 90, 120, 150 and 180 min.
Upon entering the MRI system, a rectangular dStream FlexCoverage Anterior coil (Ingenia 1.5 tesla, Philips, Best, The Netherlands) was placed on the torso of the subjects. A scouting sequence was used in the coronal and transversal plane to allow correct sequence positioning. […] Images were taken during exhalation breath hold.
Images were analysed using Horos™ (Version 3.3.6, Horos project), a free open source medical images viewer. Gastric and duodenal fluid volumes reported in this study were acquired with sequence 1. […] This made the sequence unsuitable for fluid determination as the duodenum passes these blood vessels which would interfere with the outlining of the fluid present in the duodenum.
As free water lights up in a T2 weighted image, a trained operator semi-automatically traced all the bright spots in each slice for the stomach and duodenum, according to a published procedure [21]. To differentiate between free water and other contents in the respective organs, a cut-off value (lower threshold) of 30% of the brightest voxel in either the stomach or the duodenum was applied. This cut-off value must be regarded as a rule of thumb and manual correction was made to account for bright organs like the gall bladder and obvious acquisition errors (e.g., illogical dark spots in the middle of a fluid filled stomach). Subsequently, a 3D image of the traced fluid was rendered and the fluid volume was calculated by adding up the fluid volumes of each slide (multiplying the surface area of the traced region of interest with the slice thickness).
Details of data set [3]: method as in PMID 32461076. Particulars: daily dose of 40 mg esomeprazole for three days; cited from earlier work.
On the set-up of data set [4]: method as in PMID 18991471. Particulars: compared to esomeprazole, pantoprazole and rabeparzole; cited from earlier work.
For data set [5] the following is noted: cited from earlier work.
Details of data set [6]: method as in PMID 32461076. Particulars: median; esomeprazole pre-treatment, Norvir tablet; cited from earlier work.
For data set [7] the following is noted: cited from earlier work. This is another data set of the same source.
A short description of data set [8]: Ritonavir plasma concentrations after oral intake of a Norvir tablet, control vs PPI condition (LC-MS/MS). The class given is in vivo, human. The conditions noted are these: for AUC0-480min / Tmax: one Norvir tablet oral, fasted, median (range), n = 4. On the procedure: All volunteers provided written informed consent before participating in the trial. Each trial day, the participant came to the radiology department at the University Hospitals Leuven after an overnight fast (at least 12 h). Water was allowed until the night before the trial except for the volume needed to swallow the PPI tablet. For the PPI condition, participants were pre-treated with a once-daily dose of Nexium (just before breakfast) starting two days prior to the trial day. On the morning of the trial, the final Nexium tablet was taken 2 h prior to the arrival time at the hospital, with as little water as possible to swallow the tablet. A daily dose of 40 mg esomeprazole for three days has shown to elevate and sustain the gastric and duodenal pH to values around 7.1 and 7.5, respectively, indicative of the acid-inhibitory effect. A venous catheter was placed in the subject’s arm and a blank blood sample (5 mL) was collected in heparinized tubes (BD Vacutainer systems, Plymouth, UK). […] In addition, subjects were placed in a Philips 1.5 T MRI System (Philips, Best, The Netherlands) to assess the gastric and duodenal fluid volume, once before administration of the study medication and afterwards at predetermined time points, i.e., 20, 40, 60, 90, 120, 150 and 180 min.
Blood samples were stored on ice during the remainder of the study day, before centrifugation at 2880× g, for 10 min at 4 °C (Centrifuge 5804R, Eppendorf, Hamburg, Germany). Plasma was collected and stored at −20 °C pending analysis. For analysis, a liquid-liquid extraction was performed in which 50 µL of plasma was added to 450 µL HBSS and vortexed for a few seconds. Lopinavir was used as internal standard: 100 µL of a 200 nM stock solution in 25% v/v DMSO-water was added to the mixture. Before extraction, the pH was adjusted by adding 500 µL of 40 mM borax buffer (pH = 9), followed by 5 mL of the extraction medium hexane—ethyl acetate (50:50, v/v) and shaken for 1 min. The mixture was centrifugated at 2880× g, for 5 min at 4 °C and the organic layer was transferred to a new test tube and evaporated to dryness under a gentle airflow. The residue was redissolved in 1 mL of methanol and vortexed for 30 s before another evaporation cycle. The resulting residue was reconstituted in 200 µL methanol—water (50:50, v/v) awaiting analysis.
For the analysis, a Waters ACQUITY UHPLC H-Class system consisting of a quaternary pump was used combined with a Waters Xevo TQ-S micro mass spectrometer (Waters, Milford, MA, USA). Separation took place on a Kinetex® column (2.6 µm XB-C18 100 A, 50 × 2.1 mm, Phenomenex, Utrecht, the Netherlands) using isocratic elution with methanol—0.1% formic acid (65:35, v/v) followed by a wash gradient and re-equilibration (Table 2). Column temperature was set at 35 °C and samples were kept in the autosampler at 15 °C. […] Peaks were detected with MS/MS, using electrospray ionization (ESI) as ion source. […] Fragmentation was induced by collision with argon. The system was operated in multi-reaction monitoring (MRM) mode with the mass transitions according to Table 3.

[9] abbreviates: PPI vs control condition, volunteer HV02.
The mark [10] stands for this setting: PPI vs control condition, median, present study.

Structures are written as SMILES. Like-named read-outs stand apart in the source and are kept apart here. Marks after values point to notes of the source that are not given here.

In the case of `COc1ccc2nc([S@@+]([O-])Cc3ncc(C)c(OC)c3C)[nH]c2c1` [esomeprazole], the duodenal fluid volume in data set [1] (PPI condition, after Norvir tablet with 240 mL water, median) is reported as 8.6 mL. Besides, the “relative decrease in duodenal AUVC” value in data set [1] (PPI vs control condition, median) was 33%; in data set [1] (PPI vs control condition, median, listed as PPI), 33.3%. Further, in data set [1] (setting [9]), the “drop in duodenal fluid AUVC” value was 37%. For the same compound, in data set [1] (after PPI treatment, average over all volunteers), the “decrease in duodenal fluid volume” value is 32%. In addition, in data set [2] (PPI vs control condition, fasted, prior to ritonavir intake, five volunteers), the “relative decrease in gastric residual volume (GRV)” value was found to be 41%. Further, the “relative decrease in total gastric fluid volume (AUVC)” value in data set [2] (PPI vs control condition) turned out to be 44%; in data set [2] (PPI vs control condition, listed as PPI) it was 43.9%. For the same compound, the “gastric residual volume (GRV)” value in data set [2] (following pre-treatment with esomeprazole 40 mg for three days, fasted state, mean ± SD) is on record as 20 ± 15 mL. Moreover, in data set [3], the “duodenal pH” value is recorded as approximately 7.5. Further, the “gastric pH” value in data set [3] is recorded as “around 7.1”.

Consider `COc1ccc2[nH]c([S+]([O-])Cc3ncc(C)c(OC)c3C)nc2c1` (stereo not drawn) [omeprazole], for which the “effect on the gastric fluid volume compared to other PPIs” value in data set [4] is reported as “less pronounced effect on the gastric fluid volume”. For the same compound, the “effect on plasma Cmax or AUC of ritonavir” value in data set [5] was “did not report an effect”.

With `CC(C)c1nc(CN(C)C(=O)N[C@H](C(=O)N[C@@H](Cc2ccccc2)C[C@H](O)[C@H](Cc2ccccc2)NC(=O)OCc2cncs2)C(C)C)cs1` [ritonavir], the “PPI-induced decrease in AUC0–480min” value in data set [6] is on record as 39.5%. The results for the “PPI-induced decrease in Cmax” value in data set [6] and in data set [8] (setting [10]) were 49.6% and 39.0%, respectively. For the same compound, the delay in tmax in data set [6] is 50%; in data set [8] (setting [10]), 10%. Also, in data set [7], the “Log P” value is recorded as 4.3. The pKa in data set [7] (weak base) is on record as 2.6. Moreover, the values for the AUC0-480min in data set [8] (PPI condition (esomeprazole 40 mg once daily for three days)) and in data set [8] (control condition) were 2.5 · 10^5 (1.2 · 10^5–3.2 · 10^5) nmol·min/L and 3.8 · 10^5 (2.6 · 10^5–5.9 · 10^5) nmol·min/L, respectively. The “drop in plasma AUC” value in data set [8] (setting [9]) is given as 65%. Also, the Tmax is 3.75 h in data set [8] (both sexes, human, plasma, po, 40 mg, PPI condition (esomeprazole 40 mg once daily for three days), read-out: tmax (converted)); 3.22 h in data set [8] (both sexes, human, plasma, po, 100 mg, control condition, read-out: tmax (converted)); 192.5 (175–240) min in data set [8] (control condition). The compound also registered a Cmax in data set [8] (both sexes, human, plasma, po, 100 mg) of 1130 nM.
